# Experimental data from EP0139358B1, “N6-substituted diarylalkyl adenosines, processes for their production and pharmaceutical compositions comprising the same” (priority 1983, dated 1985).
# Key:
# Format in all cases: in vivo
# Swiss-Webster male mice = test: Mouse Activity and Screen Test (MAST): screen test (ST); conditions: lowest dose at which an A rating (60-100%) is achieved, screen test; intraperitoneally
# Experimental: Treatments are administered intraperitoneally one hour prior to testing. […] Compounds are dissolved or suspended in 0.2% Methocel. Control animals are injected with Methocel.
# The compounds are identified in the Examples.
# [1] = test system: Long-Evans rats or squirrel-monkeys; test: Antipsychotic lever-push shock avoidance protocol (SIDR); conditions: Rattus norvegicus, read-out: SIDR ED50
# Experimental: Representative compounds of the invention (identified in the Examples) were also tested for antipsychotic activity according to the following protocol (SIDR). […] Mature male Long-Evans rats or squirrel-monkeys are conditioned to push a lever in order to avoid a painful electric footshock. If the animal fails to push the lever, he receives a shock every ten seconds until the lever is pushed. Shocks can be terminated by pushing the lever. Thereafter, as long as the lever is pushed at least once every 20 seconds, there will be no shock. Each animal acts as its own control; one weekly session is used to establish baseline behavior and another session later in the week is used as a drug session. Once patterns of avoidance are established, the effects of standard and unknown compounds are studied. All events are electronically programmed and the response to these events counted or used as feedback to the program.
# conscious rat = test: Antihypertensive evaluation (AHP3): aortic blood pressure and heart rate; conditions: for Mμ.c. ↓ / HR ↑: conscious rat; for Mμ.c. ↓: decrease in mean arterial blood pressure; for HR ↑: heart rate increase
smiles,measurement,setting,value
"OC[C@H]1O[C@@H](n2cnc3c(NCC(c4ccccc4)c4ccccc4)ncnc32)[C@H](O)[C@@H]1O [Example 1, N^6-(2,2-Diphenylethyl)adenosine]",MAST ST LAD,Swiss-Webster male mice,>100 mg/kg
same,ED50,[1],2.5 mg/kg
same,Mμ.c. ↓,conscious rat; 1 mg/kg,16%
same,HR ↑,conscious rat; 1 mg/kg,<20%
same,Mμ.c. ↓,conscious rat; 3 mg/kg,20%
same,HR ↑,conscious rat; 3 mg/kg,<20%
same,Mμ.c. ↓,conscious rat; 10 mg/kg,20%
same,HR ↑,conscious rat; 10 mg/kg,<20%
same,Mμ.c. ↓,conscious rat; 30 mg/kg,35%
same,HR ↑,conscious rat; 30 mg/kg,<20%
same,minimal effective dose,"conscious rat; Rattus norvegicus, read-out: AHP3 BP LAD",1 mg/kg
